Experimental data published in US7855183B2, “Methods of treatment of a bcl-2 disorder using bcl-2 antisense oligomers” (Genta Incorporated, priority 2000, dated 2010).

Columns and labels:
[1] = tested on: LCLs (EBV-associated lymphoproliferative disease); assay: Survival in the human-SCID model of PTLD; type: in vivo, mice; settings: for median survival: VP16 15 mg/kg ip q3dx4, G3139 10 mg/kg/d over 12 d ip, rituximab 20 mg/kg ip wklyx4, start 15 days after 20 million LCLs ip, untreated 50 days; for animals remaining tumor-free: monotherapy groups, stated jointly
Text: (§1) The use of the targeted therapies, G3139 ([…], Genta, Inc.) and rituximab, to enhance chemosensitivity in EBV-associated lymphoproliferative disease (LPD) have been explored. EBV+LPDs such as post-transplant lymphoproliferative disorder (PTLD) and AIDS-related lymphoma (ARL) typically express bcl-2 and CD20. […] To determine whether these targeted therapies enhance chemosensitivity in EBV+LPD, the effects of cytotoxic drugs in combination with G3139 or rituximab on proliferation and apoptosis in LCLs were examined. […] To determine whether G3139 or rituximab enhanced the anti-tumor activity of chemotherapy in vivo, the effects of VP16 (15 mg/kg ip q3d×4); G3139 (10 mg/kg/d over 12 d ip q3d) or rituximab (20 mg/kg ip wkly×4); and VP16+G3139 or VP16+rituximab (same doses) on survival in the human-SCID model of PTLD were compared. Treatment was started 15 days after ip injection of 20 million LCLs.

[2] = tested on: LCLs (lymphoblastoid cells); assay: Proliferation and apoptosis in LCLs with cytotoxic drugs plus G3139 or rituximab; type: cell-based
Text: as §1

Row | Compound | median survival [1] [days] | animals remaining tumor-free [1] [%] | effect in combination with chemotherapy [2] | effect on apoptosis ([2]; alone) | effect on proliferation ([2]; alone)
1 | COc1cc([C@@H]2c3cc4c(cc3[C@@H](O[C@@H]3O[C@@H]5CO[C@@H](C)O[C@H]5[C@H](O)[C@H]3O)[C@H]3COC(=O)[C@H]23)OCO4)cc(OC)c1O [VP16, etoposide] | 86 | 7 | – | – | –
2 | rituximab: targeted therapy; EBV+LPDs typically express bcl-2 and CD20 | 88 | 7 | augmented the effects of chemotherapy | no effect | minimal
